Data reported in article PMC2610677 (Chemistry & biology, 2008).

Molecular target: trORAS (truncated ORAS) (Neurospora crassa, UniProt Q7S6N4)
Test: HPLC of CoASH release, initial velocities, Michaelis-Menten fit
Type: biochemical
Conditions: malonyl-CoA (100 mM [sic]) as extender; 50 mM Tris-HCl pH 7.0; 30 °C

Km: 3.5 µM
Compound: CCCCCCCCCCCCCCCCCC(=O)SCCNC(=O)CCNC(=O)[C@H](O)C(C)(C)COP(=O)(O)OP(=O)(O)OC[C@H]1O[C@@H](n2cnc3c(N)ncnc32)[C@H](O)[C@@H]1OP(=O)(O)O [7a, stearoyl-CoA]
